Activity calls are given as the source filed them.
Experiments:
Streptokinase A = biological target: T1, Streptokinase A (Streptococcus pyogenes serotype M1, UniProt P10520); assay: S. pyogenes streptokinase expression inhibitors, potency, dose response, plasminogen activation absorbance, OD405 (AID 1914); type: functional, Streptococcus pyogenes M1 GAS;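 note: secreted streptokinase activity via plasminogen activation per viability signal from cell pellet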
T1 sequence (P10520 whole entry): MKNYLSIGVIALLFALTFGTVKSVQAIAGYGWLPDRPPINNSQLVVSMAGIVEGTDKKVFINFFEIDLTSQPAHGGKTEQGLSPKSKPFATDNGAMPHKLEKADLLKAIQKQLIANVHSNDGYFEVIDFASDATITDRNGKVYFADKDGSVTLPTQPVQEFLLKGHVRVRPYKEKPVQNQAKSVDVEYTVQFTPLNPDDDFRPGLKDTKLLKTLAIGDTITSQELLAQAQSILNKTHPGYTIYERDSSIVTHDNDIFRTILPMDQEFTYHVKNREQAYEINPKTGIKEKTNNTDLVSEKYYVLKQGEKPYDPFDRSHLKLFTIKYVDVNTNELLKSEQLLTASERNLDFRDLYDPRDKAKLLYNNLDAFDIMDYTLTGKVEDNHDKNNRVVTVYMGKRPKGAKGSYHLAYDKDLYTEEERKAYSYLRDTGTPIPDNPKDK

Streptococcus = assay: Group A Streptococcus viability loss, dose response, counter-screen for streptokinase expression inhibitor project, luminescence, BacTiterGlo (AID 1915); type: functional, organism-based;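 note: potency for reduction of bacterial viability or growth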
[1] = tested on: Streptococcus sp. 'group A'; assay: growth inhibition of control SK(-) GAS strain, dose response, counter-screen for streptokinase expression inhibitor project, luminescence, kanamycin, BacTiterGlo, confirmation (AID 1900); type: functional, organism-based
[2] = biological target: 72 kDa type IV collagenase (Homo sapiens, UniProt P08253); assay: Dose Response validation of uHTS RPN11 inhibitor hits using a MMP-2 Fluorescence assay.; type: functional
[3] = cytotoxicity toward NIH3T3 fibroblasts, dose response, counter-screen, cell-based, ATP luminescence, mouse fibroblasts (AID 2010); type: functional;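 note: cells exposed to compound for about 90 hours before reading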
[4] = biological target: 26S proteasome non-ATPase regulatory subunit 14 (Homo sapiens, UniProt O00487); assay: inhibition of proteasome subunit RPN11 – biochemical, fluorescence polarization, uHTS hits, confirmation (AID 602368); type: functional
Chain of 26S proteasome non-ATPase regulatory subunit 14 (O00487 whole entry): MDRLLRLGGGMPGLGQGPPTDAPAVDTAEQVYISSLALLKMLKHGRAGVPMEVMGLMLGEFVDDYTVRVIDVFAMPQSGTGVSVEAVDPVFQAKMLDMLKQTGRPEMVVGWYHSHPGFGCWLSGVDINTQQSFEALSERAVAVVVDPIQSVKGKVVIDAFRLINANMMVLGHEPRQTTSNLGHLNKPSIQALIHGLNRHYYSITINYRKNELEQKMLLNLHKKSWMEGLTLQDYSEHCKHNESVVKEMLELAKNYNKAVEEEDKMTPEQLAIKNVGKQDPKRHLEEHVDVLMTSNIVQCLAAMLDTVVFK

Prothrombin [5] = biological target: Prothrombin (Bos taurus, UniProt P00735); assay: thrombin inhibition, dose response, biochemical, fluorescence polarization, uHTS hits (AID 602369); type: functional
[6] = inhibitors of intracellular T. cruzi replication, confirmation, NIH3T3 host cells, beta-gal luminescence (AID 2044); type: functional, cell-based;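 note: intracellular parasites grown in NIH/3T3 mouse fibroblasts as host cells; luminescent beta-galactosidase reporter signal from transgenic T. cruzi replicating inside host cells; inhibitors lower the luminescence signal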
[7] = biological target: T2, Tyrosine-protein phosphatase non-receptor type 7 (Homo sapiens, UniProt P35236); assay: inhibitors of human HePTP phosphatase, […], biochemical, absorbance, leukemia target (AID 521); type: functional
T2 sequence (P35236 whole entry): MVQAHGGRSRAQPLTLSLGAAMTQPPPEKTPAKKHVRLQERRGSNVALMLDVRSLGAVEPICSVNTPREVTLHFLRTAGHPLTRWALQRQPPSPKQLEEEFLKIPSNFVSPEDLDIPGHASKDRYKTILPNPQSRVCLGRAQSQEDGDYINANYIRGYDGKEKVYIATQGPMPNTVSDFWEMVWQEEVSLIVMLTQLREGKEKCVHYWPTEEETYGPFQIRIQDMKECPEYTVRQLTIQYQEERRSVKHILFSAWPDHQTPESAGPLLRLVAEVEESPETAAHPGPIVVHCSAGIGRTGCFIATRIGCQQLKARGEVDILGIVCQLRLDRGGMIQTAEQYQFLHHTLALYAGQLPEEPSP

Prothrombin [8] = biological target: Prothrombin (Homo sapiens, UniProt P00734); assay: Thrombin 1536 HTS Dose Response Confirmation. [Related pubchem assays: 1046 (Thrombin 1536 HTS; hits were confirmed in this assay)]; type: functional
[9] = biological target: Peroxisome proliferator-activated receptor gamma/Nuclear receptor coactivator 1 (Homo sapiens, UniProt P37231); type: functional;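 note: agonist potency as compounds enhance coactivator SRC-1 recruitment to PPARgamma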
Chain of Peroxisome proliferator-activated receptor gamma/Nuclear receptor coactivator 1 (P37231 whole entry): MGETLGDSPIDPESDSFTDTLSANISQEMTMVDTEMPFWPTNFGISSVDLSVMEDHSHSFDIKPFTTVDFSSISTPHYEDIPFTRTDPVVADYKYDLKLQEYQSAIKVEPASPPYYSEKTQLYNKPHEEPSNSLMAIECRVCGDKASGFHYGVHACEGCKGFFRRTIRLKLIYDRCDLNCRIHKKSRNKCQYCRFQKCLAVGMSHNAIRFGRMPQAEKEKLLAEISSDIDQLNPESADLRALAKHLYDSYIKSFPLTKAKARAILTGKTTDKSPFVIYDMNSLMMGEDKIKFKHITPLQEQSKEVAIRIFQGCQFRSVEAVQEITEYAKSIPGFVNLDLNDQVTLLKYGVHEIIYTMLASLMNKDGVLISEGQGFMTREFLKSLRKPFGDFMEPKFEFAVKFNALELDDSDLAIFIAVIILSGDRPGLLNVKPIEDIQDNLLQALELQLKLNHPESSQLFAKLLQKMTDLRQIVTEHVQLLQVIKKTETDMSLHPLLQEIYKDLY
Chain of Peroxisome proliferator-activated receptor gamma/Nuclear receptor coactivator 1 (Q15788 whole entry, further chain): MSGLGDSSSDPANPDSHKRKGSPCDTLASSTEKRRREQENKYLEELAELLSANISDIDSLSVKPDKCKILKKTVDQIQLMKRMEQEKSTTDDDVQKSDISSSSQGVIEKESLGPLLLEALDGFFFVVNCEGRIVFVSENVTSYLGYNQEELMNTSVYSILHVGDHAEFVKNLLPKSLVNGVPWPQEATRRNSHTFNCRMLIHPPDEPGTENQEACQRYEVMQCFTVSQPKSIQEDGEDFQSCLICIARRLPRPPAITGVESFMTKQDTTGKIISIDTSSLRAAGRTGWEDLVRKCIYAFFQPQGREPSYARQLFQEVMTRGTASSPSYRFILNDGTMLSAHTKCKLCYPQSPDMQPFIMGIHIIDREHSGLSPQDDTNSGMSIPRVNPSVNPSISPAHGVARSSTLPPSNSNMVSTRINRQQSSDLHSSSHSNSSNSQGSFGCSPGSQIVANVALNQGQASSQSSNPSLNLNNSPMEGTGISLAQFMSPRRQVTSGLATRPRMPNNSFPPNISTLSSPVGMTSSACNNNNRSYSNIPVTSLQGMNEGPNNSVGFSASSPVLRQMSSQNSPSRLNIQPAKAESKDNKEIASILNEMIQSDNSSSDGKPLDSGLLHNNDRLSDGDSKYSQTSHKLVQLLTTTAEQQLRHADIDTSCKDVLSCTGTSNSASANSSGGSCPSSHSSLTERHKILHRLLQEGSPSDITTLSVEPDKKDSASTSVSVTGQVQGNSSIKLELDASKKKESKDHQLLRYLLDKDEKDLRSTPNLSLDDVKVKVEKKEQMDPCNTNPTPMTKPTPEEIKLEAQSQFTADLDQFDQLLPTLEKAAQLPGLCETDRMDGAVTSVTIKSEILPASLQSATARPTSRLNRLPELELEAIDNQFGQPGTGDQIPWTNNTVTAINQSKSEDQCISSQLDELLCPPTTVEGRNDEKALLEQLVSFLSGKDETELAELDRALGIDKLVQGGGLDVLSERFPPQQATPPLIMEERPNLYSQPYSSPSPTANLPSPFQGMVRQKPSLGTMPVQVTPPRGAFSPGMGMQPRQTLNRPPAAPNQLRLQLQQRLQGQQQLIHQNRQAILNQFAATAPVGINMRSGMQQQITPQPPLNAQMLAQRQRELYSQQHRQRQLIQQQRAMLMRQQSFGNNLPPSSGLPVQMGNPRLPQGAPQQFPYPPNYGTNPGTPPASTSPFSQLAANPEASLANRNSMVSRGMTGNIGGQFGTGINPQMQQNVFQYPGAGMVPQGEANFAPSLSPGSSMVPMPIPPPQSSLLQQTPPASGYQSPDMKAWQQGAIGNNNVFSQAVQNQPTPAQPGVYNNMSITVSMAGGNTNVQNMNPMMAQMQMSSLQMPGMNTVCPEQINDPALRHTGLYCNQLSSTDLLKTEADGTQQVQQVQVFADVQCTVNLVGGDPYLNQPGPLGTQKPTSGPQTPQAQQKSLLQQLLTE

[10] = biological target: Peroxisome proliferator-activated receptor gamma/Nuclear receptor coactivator 2 (Homo sapiens, UniProt P37231); type: functional;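 note: agonist potency for raising coactivator recruitment to the receptor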
Chain of Peroxisome proliferator-activated receptor gamma/Nuclear receptor coactivator 2 (P37231 whole entry): as the sequence (P37231 whole entry) above
Chain of Peroxisome proliferator-activated receptor gamma/Nuclear receptor coactivator 2 (Q15596 whole entry, further chain): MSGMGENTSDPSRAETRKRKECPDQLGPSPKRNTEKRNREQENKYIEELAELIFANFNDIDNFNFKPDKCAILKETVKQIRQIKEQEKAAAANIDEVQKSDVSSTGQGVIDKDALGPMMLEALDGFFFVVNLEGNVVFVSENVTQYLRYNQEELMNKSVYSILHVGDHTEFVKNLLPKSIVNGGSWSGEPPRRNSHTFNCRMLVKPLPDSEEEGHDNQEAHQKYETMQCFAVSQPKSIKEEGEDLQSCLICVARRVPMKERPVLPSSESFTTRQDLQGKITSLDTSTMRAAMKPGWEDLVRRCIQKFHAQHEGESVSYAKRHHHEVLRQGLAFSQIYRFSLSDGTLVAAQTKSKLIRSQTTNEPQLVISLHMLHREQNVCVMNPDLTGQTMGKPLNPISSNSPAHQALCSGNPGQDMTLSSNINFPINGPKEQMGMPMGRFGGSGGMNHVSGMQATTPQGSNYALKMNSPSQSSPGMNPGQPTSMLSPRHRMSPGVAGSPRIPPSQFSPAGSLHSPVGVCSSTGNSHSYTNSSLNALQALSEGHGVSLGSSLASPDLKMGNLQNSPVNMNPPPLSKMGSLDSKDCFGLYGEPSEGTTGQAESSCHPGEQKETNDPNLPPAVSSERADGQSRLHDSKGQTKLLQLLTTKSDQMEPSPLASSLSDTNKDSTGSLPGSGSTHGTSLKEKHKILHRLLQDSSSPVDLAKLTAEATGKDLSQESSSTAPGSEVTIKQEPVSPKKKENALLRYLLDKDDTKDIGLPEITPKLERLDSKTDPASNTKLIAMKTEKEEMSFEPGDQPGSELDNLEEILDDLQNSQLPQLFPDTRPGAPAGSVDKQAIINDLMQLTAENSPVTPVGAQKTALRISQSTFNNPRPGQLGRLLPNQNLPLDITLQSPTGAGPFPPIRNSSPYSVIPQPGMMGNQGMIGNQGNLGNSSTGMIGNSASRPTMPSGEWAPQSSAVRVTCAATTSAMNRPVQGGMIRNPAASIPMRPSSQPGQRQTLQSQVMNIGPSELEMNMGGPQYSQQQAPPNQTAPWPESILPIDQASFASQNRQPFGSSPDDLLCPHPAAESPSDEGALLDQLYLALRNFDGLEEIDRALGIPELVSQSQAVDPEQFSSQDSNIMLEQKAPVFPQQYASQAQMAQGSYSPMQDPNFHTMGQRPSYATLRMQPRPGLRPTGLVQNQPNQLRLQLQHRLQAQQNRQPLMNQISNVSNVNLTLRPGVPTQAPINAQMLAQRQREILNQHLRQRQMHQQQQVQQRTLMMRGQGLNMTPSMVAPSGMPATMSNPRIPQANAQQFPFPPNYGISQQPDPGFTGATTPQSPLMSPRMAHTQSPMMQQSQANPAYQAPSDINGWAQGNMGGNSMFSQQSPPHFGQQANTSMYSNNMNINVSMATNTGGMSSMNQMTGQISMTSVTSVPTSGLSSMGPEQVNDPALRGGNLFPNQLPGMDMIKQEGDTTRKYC

Estrogen receptor beta [11] = biological target: T3, Estrogen receptor beta (Homo sapiens, UniProt Q92731);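 note: recombinant ER-beta bound to coactivator SRC1 peptide in presence of estradiol agonist; inhibitors block coactivator peptide binding and lower the FRET signal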
T3 sequence (Q92731 whole entry): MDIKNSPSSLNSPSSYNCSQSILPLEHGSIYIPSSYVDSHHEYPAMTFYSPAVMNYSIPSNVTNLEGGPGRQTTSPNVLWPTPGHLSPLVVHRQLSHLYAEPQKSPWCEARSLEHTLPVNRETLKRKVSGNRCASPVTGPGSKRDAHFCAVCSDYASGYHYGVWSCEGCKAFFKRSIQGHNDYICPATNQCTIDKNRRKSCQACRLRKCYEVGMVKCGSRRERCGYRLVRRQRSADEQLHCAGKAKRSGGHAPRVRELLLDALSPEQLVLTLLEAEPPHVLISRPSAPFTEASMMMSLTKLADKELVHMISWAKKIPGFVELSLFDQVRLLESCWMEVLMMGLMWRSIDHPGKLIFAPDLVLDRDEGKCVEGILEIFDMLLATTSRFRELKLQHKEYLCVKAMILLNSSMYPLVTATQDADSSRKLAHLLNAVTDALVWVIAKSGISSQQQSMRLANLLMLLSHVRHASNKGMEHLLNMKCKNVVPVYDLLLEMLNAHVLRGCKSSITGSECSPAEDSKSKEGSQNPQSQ

Estrogen receptor beta [12] = biological target: T3, Estrogen receptor beta; assay: ERβ–SRC-3 coactivator interaction inhibitors, confirmation, orthogonal assay, biochemical, ELISA, streptavidin-HRP readout (AID 1060)
[13] = biological target: Peroxisome proliferator-activated receptor gamma/Nuclear receptor coactivator 3 (Homo sapiens, UniProt P37231); type: functional;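 note: agonist potency for raising coactivator recruitment to the receptor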
[14] = biological target: T4, Sentrin-specific protease 7 (Homo sapiens, UniProt Q9BQF6); assay: SENP7 protease inhibitors, SAR follow-up, biochemical, luminescence (AID 504497); type: functional
T4 sequence (Q9BQF6 whole entry): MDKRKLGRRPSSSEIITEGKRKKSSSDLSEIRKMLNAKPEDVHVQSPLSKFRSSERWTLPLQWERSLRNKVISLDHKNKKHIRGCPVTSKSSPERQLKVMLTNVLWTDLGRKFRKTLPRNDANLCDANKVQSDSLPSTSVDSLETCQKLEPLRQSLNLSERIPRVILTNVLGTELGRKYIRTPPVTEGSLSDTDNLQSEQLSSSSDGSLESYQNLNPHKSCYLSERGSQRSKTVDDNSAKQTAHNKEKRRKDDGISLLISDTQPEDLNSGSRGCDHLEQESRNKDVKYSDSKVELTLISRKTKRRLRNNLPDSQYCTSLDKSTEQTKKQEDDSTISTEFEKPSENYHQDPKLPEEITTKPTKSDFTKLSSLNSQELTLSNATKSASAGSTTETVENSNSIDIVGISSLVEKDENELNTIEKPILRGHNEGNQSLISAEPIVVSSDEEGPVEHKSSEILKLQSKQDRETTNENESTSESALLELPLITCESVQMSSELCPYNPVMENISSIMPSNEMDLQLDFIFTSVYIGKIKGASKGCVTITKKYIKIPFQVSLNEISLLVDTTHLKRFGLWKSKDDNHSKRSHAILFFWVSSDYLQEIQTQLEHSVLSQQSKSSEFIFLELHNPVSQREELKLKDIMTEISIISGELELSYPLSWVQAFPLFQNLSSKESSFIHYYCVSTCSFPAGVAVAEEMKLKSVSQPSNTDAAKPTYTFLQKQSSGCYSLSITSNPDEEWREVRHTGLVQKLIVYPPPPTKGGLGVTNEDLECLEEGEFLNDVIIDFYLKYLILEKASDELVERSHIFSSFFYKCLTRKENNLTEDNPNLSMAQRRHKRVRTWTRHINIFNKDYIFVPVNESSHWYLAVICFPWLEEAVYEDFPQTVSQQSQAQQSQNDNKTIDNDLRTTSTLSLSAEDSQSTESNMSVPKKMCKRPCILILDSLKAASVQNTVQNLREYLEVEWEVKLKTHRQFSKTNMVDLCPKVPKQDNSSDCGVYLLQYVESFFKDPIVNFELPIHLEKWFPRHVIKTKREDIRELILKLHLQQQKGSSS

[15] = biological target: T5, Sentrin-specific protease 6 (Homo sapiens, UniProt Q9GZR1); assay: SAR Analysis of small molecule inhibitors of Sentrin-specific protease 6 (SENP6) using a Luminescent assay. [Related pubchem assays (depositor defined):AID2582, AID2599]; type: functional
T5 sequence (Q9GZR1 whole entry): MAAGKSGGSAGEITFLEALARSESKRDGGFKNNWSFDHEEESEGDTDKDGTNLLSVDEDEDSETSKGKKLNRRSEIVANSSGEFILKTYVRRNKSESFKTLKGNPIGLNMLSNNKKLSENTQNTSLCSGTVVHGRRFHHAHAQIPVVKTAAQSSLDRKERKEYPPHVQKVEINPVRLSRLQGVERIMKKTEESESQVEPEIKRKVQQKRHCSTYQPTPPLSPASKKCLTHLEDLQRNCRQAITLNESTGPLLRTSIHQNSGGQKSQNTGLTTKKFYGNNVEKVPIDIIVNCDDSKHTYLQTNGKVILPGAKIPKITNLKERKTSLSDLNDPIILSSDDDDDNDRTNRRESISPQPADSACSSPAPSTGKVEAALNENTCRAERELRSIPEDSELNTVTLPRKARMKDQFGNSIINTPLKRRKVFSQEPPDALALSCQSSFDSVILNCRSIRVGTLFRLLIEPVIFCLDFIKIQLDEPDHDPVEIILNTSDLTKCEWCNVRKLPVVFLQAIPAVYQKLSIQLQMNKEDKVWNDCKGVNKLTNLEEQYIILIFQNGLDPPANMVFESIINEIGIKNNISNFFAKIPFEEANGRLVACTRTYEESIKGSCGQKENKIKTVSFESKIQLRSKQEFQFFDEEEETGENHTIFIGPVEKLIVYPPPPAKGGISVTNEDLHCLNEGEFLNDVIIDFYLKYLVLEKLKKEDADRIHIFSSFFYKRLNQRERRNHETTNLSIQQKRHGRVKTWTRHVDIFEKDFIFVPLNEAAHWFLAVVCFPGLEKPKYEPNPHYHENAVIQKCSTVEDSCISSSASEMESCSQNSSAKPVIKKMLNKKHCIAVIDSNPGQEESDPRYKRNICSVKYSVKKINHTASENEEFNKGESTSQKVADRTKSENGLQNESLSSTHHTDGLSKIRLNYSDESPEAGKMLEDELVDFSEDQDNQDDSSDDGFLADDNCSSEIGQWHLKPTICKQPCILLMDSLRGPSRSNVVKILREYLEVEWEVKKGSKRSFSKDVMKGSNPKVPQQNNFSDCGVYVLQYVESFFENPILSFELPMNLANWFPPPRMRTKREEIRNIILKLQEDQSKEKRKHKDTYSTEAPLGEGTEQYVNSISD

[16] = biological target: T6, Sentrin-specific protease 8 (Homo sapiens, UniProt Q96LD8); assay: SENP8 protease inhibitors, SAR follow-up, biochemical, luminescence (AID 504501); type: functional
T6 sequence (Q96LD8 whole entry): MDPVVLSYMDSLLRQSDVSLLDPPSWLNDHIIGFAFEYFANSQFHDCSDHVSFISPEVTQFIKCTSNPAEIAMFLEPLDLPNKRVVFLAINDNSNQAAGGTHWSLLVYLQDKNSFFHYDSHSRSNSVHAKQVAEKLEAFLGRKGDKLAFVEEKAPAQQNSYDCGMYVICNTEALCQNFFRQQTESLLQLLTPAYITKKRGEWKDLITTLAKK

Caspase-3 = biological target: T7, Caspase-3 (Homo sapiens, UniProt P42574); assay: SAR Analysis of small molecule inhibitors of Sentrin-specific proteases (SENPs) using a Caspase-3 Selectivity assay. [Related pubchem assays (depositor defined):AID2540, AID2599, AID434973, AID489001]; type: functional
T7 sequence (P42574 whole entry): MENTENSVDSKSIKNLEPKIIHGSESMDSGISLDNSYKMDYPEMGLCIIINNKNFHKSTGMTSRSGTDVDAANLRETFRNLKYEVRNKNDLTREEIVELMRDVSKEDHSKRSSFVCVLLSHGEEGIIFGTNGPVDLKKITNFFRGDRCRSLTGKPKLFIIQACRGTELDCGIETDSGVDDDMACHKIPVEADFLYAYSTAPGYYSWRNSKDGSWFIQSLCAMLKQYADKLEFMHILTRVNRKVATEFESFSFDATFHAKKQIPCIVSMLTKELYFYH

[17] = biological target: T8, Mannose-6-phosphate isomerase (Homo sapiens, UniProt P34949); assay: inhibitors of human PMI, primary screen, biochemical, fluorescence intensity, coupled assay (AID 1209)
T8 sequence (P34949 whole entry): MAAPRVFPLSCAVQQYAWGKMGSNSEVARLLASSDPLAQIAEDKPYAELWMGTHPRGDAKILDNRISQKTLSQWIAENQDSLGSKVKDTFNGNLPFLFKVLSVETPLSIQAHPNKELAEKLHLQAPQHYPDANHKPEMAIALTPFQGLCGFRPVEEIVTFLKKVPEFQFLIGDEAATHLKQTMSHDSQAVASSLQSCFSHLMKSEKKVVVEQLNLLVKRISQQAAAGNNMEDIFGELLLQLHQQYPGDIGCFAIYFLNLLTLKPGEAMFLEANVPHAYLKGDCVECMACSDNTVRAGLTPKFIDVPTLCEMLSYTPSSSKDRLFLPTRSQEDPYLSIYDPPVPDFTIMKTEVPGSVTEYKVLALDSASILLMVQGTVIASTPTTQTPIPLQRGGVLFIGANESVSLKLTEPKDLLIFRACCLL

[18] = biological target: T8, Mannose-6-phosphate isomerase; assay: human PMI inhibitors, high substrate, primary screen, biochemical, fluorescence intensity, high mannose 6-phosphate (AID 1220)

COc1ccc2nc3c(O)n(/N=C/c4ccc(OC)c(CN5CCCC5)c4)c(C)nc-3c2c1
EC50 (Streptokinase A): 32.3 µM (active)
EC50 (Streptococcus): > 150 µM (not active)
EC50 [1]: 17.8 µM (active)
IC50 [2]: > 100 µM (inactive)
EC50 [3]: > 60 µM (not active)
EC50 (cells): 0.336 µM (active)
IC50 [4]: 13 µM (active)
IC50 (Prothrombin [5]): 87.9 µM (active)
EC50 [6]: < 0.1 µM (active)

NS(=O)(=O)c1cc2c(cc1C(F)(F)F)NCNS2(=O)=O [HYDROFLUMETHIAZIDE]
IC50 [7]: > 100 µM (not active)

Cn1cc(C(=O)NCc2cccs2)c(=O)c2cc(S(=O)(=O)N3CCCC3)ccc21
IC50 (Prothrombin [8]): 0.691 µM (active)

c1csc(Cc2nn3c(-c4n[nH]c5c4CCC5)nnc3s2)c1
EC50 [9]: > 79.4 µM (not active)
EC50 [10]: > 79.4 µM (not active)
IC50 (Estrogen receptor beta [11]): > 50 µM (not active)
IC50 (Estrogen receptor beta [12]): > 50 µM (not active)
EC50 [13]: > 79.4 µM (not active)

Oc1cccc(/C=N/Nc2cc(N3CCOCC3)nc(N3CCOCC3)n2)c1
IC50 [14]: 80.5 µM (active)
IC50 [15]: 89.1 µM (active)
IC50 [16]: > 99 µM (inactive)
IC50 (Caspase-3): > 99 µM (inactive)
IC50 [17]: > 50 µM (not active)
IC50 [18]: > 50 µM (not active)

CC(Oc1ccc(Br)cc1)C(=O)Nc1ccc(S(=O)(=O)N(C)C2CCN(C)CC2)cc1 (stereo not given)
EC50 [3]: 8.64 µM (active)
EC50 (cells): 0.073 µM (active)
EC50 [6]: < 0.1 µM (active)
